Assay results: patent US20240358692A1, “TREATMENT OF SCLERODERMA” (Aisa Pharma, Inc., priority 2023, published 2024)

Test system: participants with SSc-RP
Test: Average severity of weekly RP attacks (VAS 0-10)
Type: in vivo, human
Settings: for Average Severity (0-10) of weekly RP attacks, Median / Average severity of weekly RP attacks, Change from Baseline, Mean / Average severity of weekly RP attacks, Change from Baseline, Median / Average severity of weekly RP attacks, Percent Change from Baseline, Mean / Average severity of weekly RP attacks, Percent Change from Baseline, Median / Average Severity (0-10) of weekly RP attacks, Mean: all attacks
Text: The absolute change in average severity of weekly RP attacks (VAS 0-10 cm scale) from baseline to the end of each Dosing Period was and will be a secondary outcome variable. The sponsor-developed participant-informed diary will be used to record data. Average severity of weekly RP attacks is defined as the total severity scores of RP attacks divided by total number of RP attacks within the last 7 days of each dosing period. Total severity scores of RP attacks during the last 7 days of screening period divided by the total number of RP attacks will be used as baseline for the analysis of all periods. The variable will be calculated similar to frequency data as before.

[1] = Cilnidipine 10 mg, 1st Baseline RCS subgroup, ITT Part A, last 7 days of dosing period
[2] = Cilnidipine 10 mg, Excluding Outliers, 1st Baseline RCS subgroup, ITT Part A, last 7 days of dosing period
[3] = Cilnidipine 10 mg, ITT Part A, last 7 days of dosing period
[4] = Cilnidipine 10 mg, Excluding Outliers, ITT Part A
[5] = Cilnidipine 10 mg, Excluding Outliers, by Baseline RCS: first subgroup of Table C-8, ITT Part A
[6] = Cilnidipine 10 mg, by Baseline RCS: first subgroup of Table C-7, ITT Part A
[7] = Cilnidipine 10 mg, excluding outliers, ITT Part A
[8] = Cilnidipine 10 mg, excluding outliers, severity 0-10, ITT Part A
[9] = Cilnidipine 10 mg, severity 0-10, ITT Part A
[10] = Cilnidipine 20 mg, 1st Baseline RCS subgroup, ITT Part A, last 7 days of dosing period
[11] = Cilnidipine 20 mg, Excluding Outliers, 1st Baseline RCS subgroup, ITT Part A, last 7 days of dosing period
[12] = Cilnidipine 20 mg, ITT Part A, last 7 days of dosing period
[13] = Cilnidipine 20 mg, Excluding Outliers, ITT Part A
[14] = Cilnidipine 20 mg, Excluding Outliers, by Baseline RCS: first subgroup of Table C-8, ITT Part A
[15] = Cilnidipine 20 mg, by Baseline RCS: first subgroup of Table C-7, ITT Part A
[16] = Cilnidipine 20 mg, excluding outliers, ITT Part A
[17] = Cilnidipine 20 mg, excluding outliers, severity 0-10, ITT Part A
[18] = Cilnidipine 20 mg, severity 0-10, ITT Part A
[19] = Pooled Cilnidipine 10 mg and Cilnidipine 10 mg + Tadalafil 5 mg, 1st Baseline RCS subgroup, ITT Part A, last 7 days of dosing period
[20] = Pooled Cilnidipine 10 mg and Cilnidipine 10 mg + Tadalafil 5 mg, 2nd Baseline RCS subgroup, ITT Part A, last 7 days of dosing period

COCCOC(=O)C1=C(C)NC(C)=C(C(=O)OC/C=C/c2ccccc2)C1c1cccc([N+](=O)[O-])c1 (stereo not shown) [Cilnidipine]
Average Severity of Weekly Symptomatic RP Attacks, Change from Baseline, Mean [1]: 0.28
Average Severity of Weekly Symptomatic RP Attacks, Change from Baseline, Median [1]: 0.28
Average Severity of Weekly Symptomatic RP Attacks, Mean [1]: 3.77
Average Severity of Weekly Symptomatic RP Attacks, Median [1]: 3.77
Average Severity of Weekly Symptomatic RP Attacks, Percent Change from Baseline, Mean [1]: 8.05%
Average Severity of Weekly Symptomatic RP Attacks, Percent Change from Baseline, Median [1]: 8.05%
Average Severity of Weekly Symptomatic RP Attacks, Change from Baseline, Mean [2]: 0.28
Average Severity of Weekly Symptomatic RP Attacks, Change from Baseline, Median [2]: 0.28
Average Severity of Weekly Symptomatic RP Attacks, Mean [2]: 3.77
Average Severity of Weekly Symptomatic RP Attacks, Median [2]: 3.77
Average Severity of Weekly Symptomatic RP Attacks, Percent Change from Baseline, Mean [2]: 8.05%
Average Severity of Weekly Symptomatic RP Attacks, Percent Change from Baseline, Median [2]: 8.05%
Average Severity of Weekly Symptomatic RP Attacks, Percent Change from Baseline, Mean (Cilnidipine 10 mg, ITT Part A): 8.05%
Average Severity of Weekly Symptomatic RP Attacks, Percent Change from Baseline, Median (Cilnidipine 10 mg, ITT Part A): 8.05%
Average Severity of Weekly RP Attacks (All Attacks), Change from Baseline, Mean [3]: 0.02
Average Severity of Weekly RP Attacks (All Attacks), Change from Baseline, Median [3]: 0.02
Average Severity of Weekly RP Attacks (All Attacks), Mean [3]: 3.05
Average Severity of Weekly RP Attacks (All Attacks), Median [3]: 3.05
Average Severity of Weekly RP Attacks (All Attacks), Percent Change from Baseline, Mean [3]: 0.55%
Average Severity of Weekly RP Attacks (All Attacks), Percent Change from Baseline, Median [3]: 0.55%
Average Severity (0-10) of weekly RP attacks, Median [4]: 3.05
Average severity of weekly RP attacks, Change from Baseline, Mean [4]: 0.02
Average severity of weekly RP attacks, Change from Baseline, Median [4]: 0.02
Average severity of weekly RP attacks, Percent Change from Baseline, Mean [4]: 0.55%
Average severity of weekly RP attacks, Percent Change from Baseline, Median [4]: 0.55%
Average Severity (0-10) of weekly RP attacks, Mean [5]: 3.05
Average Severity (0-10) of weekly RP attacks, Median [5]: 3.05
Average severity of weekly RP attacks, Change from Baseline, Mean [5]: 0.02
Average severity of weekly RP attacks, Change from Baseline, Median [5]: 0.02
Average severity of weekly RP attacks, Percent Change from Baseline, Mean [5]: 0.55%
Average severity of weekly RP attacks, Percent Change from Baseline, Median [5]: 0.55%
Average Severity (0-10) of weekly RP attacks, Mean [6]: 3.05
Average Severity (0-10) of weekly RP attacks, Median [6]: 3.05
Average severity of weekly RP attacks, Change from Baseline, Mean [6]: 0.02
Average severity of weekly RP attacks, Change from Baseline, Median [6]: 0.02
Average severity of weekly RP attacks, Percent Change from Baseline, Mean [6]: 0.55%
Average severity of weekly RP attacks, Percent Change from Baseline, Median [6]: 0.55%
Average Severity of Weekly Symptomatic RP Attacks, Percent Change from Baseline, Mean [7]: 8.05%
Average Severity of Weekly Symptomatic RP Attacks, Percent Change from Baseline, Median [7]: 8.05%
Average Severity of Weekly Symptomatic RP Attacks, Change from Baseline, Mean [8]: 0.28
Average Severity of Weekly Symptomatic RP Attacks, Change from Baseline, Median [8]: 0.28
Average Severity of Weekly Symptomatic RP Attacks, Mean [8]: 3.77
Average Severity of Weekly Symptomatic RP Attacks, Median [8]: 3.77
Average Severity of Weekly Symptomatic RP Attacks, Change from Baseline, Mean [9]: 0.28
Average Severity of Weekly Symptomatic RP Attacks, Change from Baseline, Median [9]: 0.28
Average Severity of Weekly Symptomatic RP Attacks, Mean [9]: 3.77
Average Severity of Weekly Symptomatic RP Attacks, Median [9]: 3.77
Severity (change) (Cilnidipine 20 mg (n = 3)): −36%
Average Severity of Weekly Symptomatic RP Attacks, Change from Baseline, Mean [10]: −1.44
Average Severity of Weekly Symptomatic RP Attacks, Change from Baseline, Median [10]: −1.44
Average Severity of Weekly Symptomatic RP Attacks, Mean [10]: 2.30
Average Severity of Weekly Symptomatic RP Attacks, Median [10]: 2.30
Average Severity of Weekly Symptomatic RP Attacks, Percent Change from Baseline, Mean [10]: −32.85%
Average Severity of Weekly Symptomatic RP Attacks, Percent Change from Baseline, Median [10]: −32.85%
Average Severity of Weekly Symptomatic RP Attacks, Change from Baseline, Mean [11]: −1.44
Average Severity of Weekly Symptomatic RP Attacks, Change from Baseline, Median [11]: −1.44
Average Severity of Weekly Symptomatic RP Attacks, Mean [11]: 2.30
Average Severity of Weekly Symptomatic RP Attacks, Median [11]: 2.30
Average Severity of Weekly Symptomatic RP Attacks, Percent Change from Baseline, Mean [11]: −32.85%
Average Severity of Weekly Symptomatic RP Attacks, Percent Change from Baseline, Median [11]: −32.85%
Average Severity of Weekly Symptomatic RP Attacks, Percent Change from Baseline, Mean (Cilnidipine 20 mg, ITT Part A): −32.85%
Average Severity of Weekly Symptomatic RP Attacks, Percent Change from Baseline, Median (Cilnidipine 20 mg, ITT Part A): −32.85%
Average Severity of Weekly RP Attacks (All Attacks), Change from Baseline, Mean [12]: −1.07
Average Severity of Weekly RP Attacks (All Attacks), Change from Baseline, Median [12]: −1.07
Average Severity of Weekly RP Attacks (All Attacks), Mean [12]: 2.30
Average Severity of Weekly RP Attacks (All Attacks), Median [12]: 2.30
Average Severity of Weekly RP Attacks (All Attacks), Percent Change from Baseline, Mean [12]: −27.26%
Average Severity of Weekly RP Attacks (All Attacks), Percent Change from Baseline, Median [12]: −27.26%
Average Severity (0-10) of weekly RP attacks, Mean [13]: 2.30
Average Severity (0-10) of weekly RP attacks, Median [13]: 2.30
Average severity of weekly RP attacks, Change from Baseline, Mean [13]: −1.07
Average severity of weekly RP attacks, Change from Baseline, Median [13]: −1.07
Average severity of weekly RP attacks, Percent Change from Baseline, Mean [13]: −27.26%
Average severity of weekly RP attacks, Percent Change from Baseline, Median [13]: −27.26%
Average Severity (0-10) of weekly RP attacks, Mean [14]: 2.30
Average Severity (0-10) of weekly RP attacks, Median [14]: 2.30
Average severity of weekly RP attacks, Change from Baseline, Mean [14]: −1.07
Average severity of weekly RP attacks, Change from Baseline, Median [14]: −1.07
Average severity of weekly RP attacks, Percent Change from Baseline, Mean [14]: −27.26%
Average severity of weekly RP attacks, Percent Change from Baseline, Median [14]: −27.26%
Average Severity (0-10) of weekly RP attacks, Mean [15]: 2.30
Average Severity (0-10) of weekly RP attacks, Median [15]: 2.30
Average severity of weekly RP attacks, Change from Baseline, Mean [15]: −1.07
Average severity of weekly RP attacks, Change from Baseline, Median [15]: −1.07
Average severity of weekly RP attacks, Percent Change from Baseline, Mean [15]: −27.26%
Average severity of weekly RP attacks, Percent Change from Baseline, Median [15]: −27.26%
Average Severity of Weekly Symptomatic RP Attacks, Percent Change from Baseline, Mean [16]: −32.85%
Average Severity of Weekly Symptomatic RP Attacks, Percent Change from Baseline, Median [16]: −32.85%
Average Severity of Weekly Symptomatic RP Attacks, Change from Baseline, Mean [17]: −1.44
Average Severity of Weekly Symptomatic RP Attacks, Change from Baseline, Median [17]: −1.44
Average Severity of Weekly Symptomatic RP Attacks, Mean [17]: 2.30
Average Severity of Weekly Symptomatic RP Attacks, Median [17]: 2.30
Average Severity of Weekly Symptomatic RP Attacks, Change from Baseline, Mean [18]: −1.44
Average Severity of Weekly Symptomatic RP Attacks, Change from Baseline, Median [18]: −1.44
Average Severity of Weekly Symptomatic RP Attacks, Mean [18]: 2.30
Average Severity of Weekly Symptomatic RP Attacks, Median [18]: 2.30
Average Severity of Weekly Symptomatic RP Attacks, Change from Baseline, Mean [19]: −1.22
Average Severity of Weekly Symptomatic RP Attacks, Change from Baseline, Median [19]: −1.22
Average Severity of Weekly Symptomatic RP Attacks, Mean [19]: 3.34
Average Severity of Weekly Symptomatic RP Attacks, Median [19]: 3.34
Average Severity of Weekly Symptomatic RP Attacks, Percent Change from Baseline, Mean [19]: −20.18%
Average Severity of Weekly Symptomatic RP Attacks, Percent Change from Baseline, Median [19]: −20.18%
Average Severity of Weekly Symptomatic RP Attacks, Change from Baseline, Mean [20]: −1.13
Average Severity of Weekly Symptomatic RP Attacks, Change from Baseline, Median [20]: −1.13
Average Severity of Weekly Symptomatic RP Attacks, Mean [20]: 5.23
Average Severity of Weekly Symptomatic RP Attacks, Median [20]: 5.23
Average Severity of Weekly Symptomatic RP Attacks, Percent Change from Baseline, Mean [20]: −17.81%
Average Severity of Weekly Symptomatic RP Attacks, Percent Change from Baseline, Median [20]: −17.81%
Average Severity of Weekly Symptomatic RP Attacks, Change from Baseline, Mean (Pooled Cilnidipine 10 mg and Cilnidipine 10 mg + Tadalafil 5 mg, Excluding Outliers, 1st Baseline RCS subgroup, ITT Part A, last 7 days of dosing period): −1.22
